Laboratory results from the NIST ThermoML archive (doi:10.1021/acs.jced.6b00901).
± gives the expanded uncertainty stated by the source.

Experiment: refractive index (Na D-line) (dimensionless)
Settings: 101.33 kPa, Liquid, Standard Abbe refractometry

Row | SMILES | refractive index (308.15 K) | refractive index (313.15 K) | refractive index (318.15 K) | refractive index (323.15 K) | refractive index (283.15 K) | refractive index (288.15 K) | refractive index (293.15 K) | refractive index (298.15 K) | refractive index (303.15 K)
1 | C1=CC2C3C=CC(C3)C2C1 (configuration not stated) [3a,4,7,7a-tetrahydro-4,7-methanoindene] | 1.5069 ± 0.0004 | 1.5045 ± 0.0004 | 1.5019 ± 0.0004 | 1.4991 ± 0.0004 | – | – | – | – | –
2 | CCOC(=O)c1ccccc1C(=O)OCC [diethyl phthalate] | 1.4962 ± 0.0004 | 1.4939 ± 0.0004 | 1.4917 ± 0.0004 | 1.4897 ± 0.0004 | 1.507 ± 0.0004 | 1.5048 ± 0.0004 | 1.5027 ± 0.0004 | 1.5005 ± 0.0004 | 1.4984 ± 0.0004
3 | C=Cc1ccccc1 [styrene] | 1.538 ± 0.0004 | 1.5352 ± 0.0004 | 1.5321 ± 0.0004 | 1.5291 ± 0.0004 | 1.5533 ± 0.0004 | 1.5505 ± 0.0004 | 1.5472 ± 0.0004 | 1.544 ± 0.0004 | 1.5409 ± 0.0004
